Reference: patent US20080098491A1, “MOUSE MODELS TO STUDY CACHEXIA” (ZOLTAN LABORATORIES LLC, priority 2006, published 2008)

Assays:
Format in all cases: in vivo
MXT mouse mammary tumor [1] = experiment: Cisplatin-treated MXT mouse mammary tumor model, purified PALP, AT, holo-TF, apo-TF (Example 9, Experiment 2); conditions: 12-mg/kg s.c. with cisplatin 3-mg/kg i.p.
Excerpt: (§1) The B16 mouse melanoma and MXT mouse mammary tumors were developed in first generation hybrid BDF1 (C57 B1 female×DBA/2 male) adult female mice kept at specified pathogen free (SPF) hygienic level. These models were chosen for these experiments because these mice have the complete immune system, and both tumors grow very rapidly. To develop the tumors, B16 and MXT tumor tissue fragments of about 0.1-cm^3 were surgically implanted subcutaneously into the intrascapular region to develop the tumors. Each tumor fragment contained about 1-1.5×10^6 cells. The animals were kept in macrolon cages on ventilated rack at 22-24° C. (50-60% humidity) with lighting regimen of 12/12 h light/dark. The animals had free access to tap water and were fed with sterilized standard diet (Charles River VRF1, Germany) ad libitum. The animals were taken care of according to the “Guiding Principle for the care and use of Animals” based upon the Helsinki declaration and they were approved by the local ethical committee.
(§2) In case of both tumor models the tumor size was usually in the range of 0.2 to 0.5-g when treatments started 7-11 days after tumor implantation; the mice were selected so that in the same treatment group the difference in tumor size was no greater than 0.1 gram. In some experiments, the test proteins were suspended in physiological saline and injected in 50-μl volume subcutaneously in the vicinity of tumor (within 1-cm of tumor margin). In other experiments, the test proteins were dispersed in Vaselinum cholesteratum and used topically; 150-mg cream was applied on the tumor and the vicinity of tumor area (with about 0.5-cm of the tumor margin). The tumor volume was determined by using calipers; this technique is well known to one having ordinary skill in the art. Tumor volume was calculated according to the generally accepted formula: V=a^2×b×7r/6, where “a” and “b” mean the shortest and longest diameter, respectively, of the measured tumor.
Experiment 2. The commercial PALP used in this model for Exp. 1 was composed of PALP (˜10%), TF (˜12%), AT (˜30%), albumin (˜35%) and the degradation products of TF (˜13%). […] In this experiment, it was determined whether the other two major proteins, i.e. TF and AT, present in the commercial PALP preparation in addition to PALP, also influence cisplatin-induced loss of body weight or not. The mouse MXT mammary tumor was developed as described in Example 3. In the first group, animals remained untreated during the whole observation period. In the second group, starting on the 7th day after tumor implantation, mice were administered 3-mg per 1-kg of cisplatin i.p. 6-times every second day. In the third group, starting on the 7th day after tumor implantation, mice were simultaneously administered 3-mg per 1-kg of cisplatin i.p. and 12-mg per 1-kg of purified PALP s.c. In the fourth group, starting on the 7th day after tumor implantation, mice were simultaneously administered 3-mg per 1-kg of cisplatin i.p. and 12-mg per 1-kg of highly purified AT s.c. In the fifth group, starting on the 7th day after tumor implantation, mice were simultaneously administered 3-mg per 1-kg of cisplatin i.p. and 12-mg per 1-kg of commercial holo-TF (h-TF, T 0665 in the Sigma catalog) s.c. In the sixth group, starting on the 7th day after tumor implantation, mice were simultaneously administered 3-mg per 1-kg of cisplatin i.p. and 12-mg per 1-kg of commercial apo-TF (a-TF, T 2036 in the Sigma catalog) s.c. Holo-TF contained 1,100-1,600 μg iron per gram protein while apo-TF was essentially iron-free. Each treatment with the proteins was also performed 6-times on every second day simultaneously with the cisplatin treatment. Each group included 7 animals. The mean values for total weight, tumor weight and body weight (the difference between total and tumor weight) are shown in gram in TABLE 7.

MXT mouse mammary tumor [2] = experiment: Cisplatin-treated MXT mouse mammary tumor model, CCDTHT (Example 10); conditions: with cisplatin 3-mg/kg i.p.
Excerpt: as §1, §2
The mouse MXT mammary tumor was developed as described in Example 3. In the first group, animals remained untreated during the whole observation period. In the second group, starting on the 7th day after tumor implantation, mice were administered 3-mg per 1-kg of cisplatin i.p. 9-times every second day. In the third group, starting on the 7th day after tumor implantation, mice were simultaneously administered 3-mg per 1-kg of cisplatin i.p. and 4.6-mg per 1-kg of CCDTHT s.c. In the fourth group, starting on the 7th day after tumor implantation, mice were simultaneously administered 3-mg per 1-kg of cisplatin i.p. as well as 4.6-mg per 1-kg of CCDTHT s.c. and 14-mg per 1-kg of highly purified PALP s.c. Each treatment was performed 9-times on every second day. Each group included 7 animals. The mean values for total weight, tumor weight and body weight (the difference between total and tumor weight) are shown in TABLE 8.

B16 mouse melanoma = B16 mouse melanoma model, s.c. CCDTHT (Example 8); conditions: for Body weight (total weight minus tumor weight) / Total weight / Tumor weight: CCDTHT 4.5-mg/kg s.c. daily from day 11 until day 22
Excerpt: as §1, §2
In this model, CCDTHT, a chemically synthesized compound is used to prevent or reverse tumor-induced body weight loss. The B16 mouse tumors were developed as described in Example 3. Two experimental groups each involving five mice were used. In the first group, mice remained untreated during the entire observation period. In the second group, starting on the 11th day after tumor implantation, mice were s.c. administered 4.5-mg/kg CCDTHT; then the treatments were repeated daily until day 22. The mean values for total weight, tumor weight and body weight (the difference between total and tumor weight) are shown in TABLE 5.

[3] = day 11 after tumor transplantation
[4] = day 14 after tumor transplantation
[5] = day 16 after tumor transplantation
[6] = day 18 after tumor transplantation
[7] = day 21 after tumor transplantation
[8] = day 23, CCDTHT 4.5-mg/kg s.c. daily
[9] = day 23 after tumor transplantation

## apo-TF: commercial apo-transferrin (Sigma T 2036), essentially iron-free
MXT mouse mammary tumor [1]
  Effect on cisplatin-induced body weight loss: partially reversed cisplatin-induced body weight loss

## holo-TF: commercial holo-transferrin (Sigma T 0665), 1,100-1,600 μg iron per gram protein
MXT mouse mammary tumor [1]
  Effect on cisplatin-induced body weight loss: partially reversed cisplatin-induced body weight loss

## CC[N+](C)(CC)CCOCc1ccc2sc3ccccc3c(=O)c2c1.[I-] [CCDTHT, N,N-diethyl-N-methyl-2-[(9-oxo-9H-thioxanthen-2-yl)methoxy]-ethanaminium iodide]
MXT mouse mammary tumor [2]
  Effect on cisplatin-induced body weight loss: effectively prevents cisplatin-induced body weight loss
B16 mouse melanoma; CCDTHT 4.5-mg/kg s.c. daily
  Effect on body weight: modest weight gain
B16 mouse melanoma; [3]
  Body weight (total weight minus tumor weight): 22.4 g
  Total weight: 23.0 g
  Tumor weight: 0.6 g
B16 mouse melanoma; [4]
  Body weight (total weight minus tumor weight): 22.9 g
  Total weight: 23.7 g
  Tumor weight: 0.8 g
B16 mouse melanoma; [5]
  Body weight (total weight minus tumor weight): 23.2 g
  Total weight: 24.2 g
  Tumor weight: 1.0 g
B16 mouse melanoma; [6]
  Body weight (total weight minus tumor weight): 23.4 g
  Total weight: 24.7 g
  Tumor weight: 1.3 g
B16 mouse melanoma; [7]
  Body weight (total weight minus tumor weight): 23.6 g
  Total weight: 25.4 g
  Tumor weight: 1.8 g
B16 mouse melanoma; [8]
  Body weight difference to control mice: about 10%
  Body weight heavier than control mice: 2.6 grams
B16 mouse melanoma; [9]
  Body weight (total weight minus tumor weight): 23.8 g
  Total weight: 25.9 g
  Tumor weight: 2.1 g
